Laboratory results from US12692249B2, “WDR5 inhibitors and modulators” (Vanderbilt University, priority 2019, dated 2026).
Like-named read-outs stand apart in the source and are kept apart here.

What was measured:
[1] = target: WDR5 (Homo sapiens, UniProt P61964); test: TR-FRET competition binding assay, displacement of 10mer-Thr-FAM MLL peptide probe from His-tagged WDR5; conditions: WDR5-His tag (residues 24-334) 2 nM; 10mer-Thr-FAM 150 nM; 60 min, room temperature; read-out: Ki for Inhibition of WDR5 by TR-FRET assay
[2] = tested on: MV4:11 human cancer cell lines; test: Cellular viability / anti-proliferative assay, CellTiter-Glo, 5 day protocol; assay type: cell-based; conditions: Homo sapiens, MV4-11, 120 h, read-out: GI50 on cellular proliferation of MV4:11 human cancer cell lines
Method in brief: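 Luminescent ATP-based viability (CellTiter-Glo) after a 5-day exposure gave GI50 via sigmoidal fitting, averaged over two or more replicates. Compounds spanned 22 two-fold steps down from 30 μM at 0.3% DMSO, on 200 MV-4-11 cells per well grown in IMDM plus 10% FBS.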

[3] = MV4:11 cells, 5 day incubation, CellTiter-Glo, mean of at least two replicates

Structure (SMILES)	Ki [1] [nM]	GI50 [2] [nM]	GI50 [2, 3] [nM]
COc1cc(COC2CC2)c2nccc(N3CCc4c(cc(Cn5ccnc5)cc4-c4cn(C)nc4C(F)(F)F)C3=O)c2c1 [Example 167, 7-((1H-Imidazol-1-yl)methyl)-2-(8-(cyclopropoxymethyl)-6-methoxyquinolin-4-yl)-5-(1-methyl-3-(trifluoromethyl)-1H-pyrazol-4-yl)-3,4-dihydroisoquinolin-1(2H)-one]	0.034	106	
COc1cc(N2CCC(OC)CC2)c2nc(C)cc(N3CCc4c(cc(Cn5ccnc5)cc4-c4cn(C)nc4C(F)(F)F)C3=O)c2c1 [Example 195, 7-((1H-Imidazol-1-yl)methyl)-2-(6-methoxy-8-(4-methoxypiperidin-1-yl)-2-methylquinolin-4-yl)-5-(1-methyl-3-(trifluoromethyl)-1H-pyrazol-4-yl)-3,4-dihydroisoquinolin-1(2H)-one]	< 0.02		< 20
COc1cc(CN2CCN3CCOC[C@@H]3C2)c2nccc(N3CCc4c(cc(Cn5ccnc5)cc4-c4cn(C)nc4C(F)(F)F)C3=O)c2c1 [Example 141, (S)-7-((1H-Imidazol-1-yl)methyl)-2-(8-((hexahydropyrazino[2,1-c][1,4]oxazin-8(1H)-yl)methyl)-6-methoxyquinolin-4-yl)-5-(1-methyl-3-(trifluoromethyl)-1H-pyrazol-4-yl)-3,4-dihydroisoquinolin-1(2H)-one]	0.07		< 20
Cc1nc2cccc(N3CCc4c(cc(Cn5ccnc5)cc4-c4cn(C)nc4C(F)(F)F)C3=O)c2o1 [Example 27, 7-((1H-Imidazol-1-yl)methyl)-5-(1-methyl-3-(trifluoromethyl)-1H-pyrazol-4-yl)-2-(2-methylbenzo[d]oxazol-7-yl)-3,4-dihydroisoquinolin-1(2H)-one]	4.6		> 30000
CCc1cc(N2C[C@H]3CN(C)C[C@H]3C2)c2nc(C)cc(N3CCc4c(cc(Cn5ccnc5)cc4-c4cn(C)nc4C(F)(F)F)C3=O)c2c1 [Example 197, 7-((1H-Imidazol-1-yl)methyl)-2-(6-ethyl-2-methyl-8-((3aR,6aS)-5-methylhexahydropyrrolo[3,4-c]pyrrol-2(1H)-yl)quinolin-4-yl)-5-(1-methyl-3-(trifluoromethyl)-1H-pyrazol-4-yl)-3,4-dihydroisoquinolin-1(2H)-one]	0.02		< 20
COc1ccc2c(c1)[C@@H](N1CCc3c(cc(Cn4ccnc4C)cc3-c3cn(C)nc3C(F)(F)F)C1=O)CCO2 [Example 69, (S)-2-(6-Methoxychroman-4-yl)-7-((2-methyl-1H-imidazol-1-yl)methyl)-5-(1-methyl-3-(trifluoromethyl)-1H-pyrazol-4-yl)-3,4-dihydroisoquinolin-1(2H)-one]	< 0.02		< 20
COc1cc(OC)c2nc(C)cc(N3CCc4c(cc(Cn5ccnc5)cc4-c4cn(C)nc4C(F)(F)F)C3=O)c2c1 [Example 18, 7-((1H-Imidazol-1-yl)methyl)-2-(6,8-dimethoxy-2-methylquinolin-4-yl)-5-(1-methyl-3-(trifluoromethyl)-1H-pyrazol-4-yl)-3,4-dihydroisoquinolin-1(2H)-one]	< 0.02		< 20
CCOC(=O)c1cc(OC)cc2c(N3CCc4c(cc(Cn5ccnc5)cc4-c4cn(C)nc4C(F)(F)F)C3=O)cc(C)nc12 [Example 95, Ethyl 4-(7-((1H-imidazol-1-yl)methyl)-5-(1-methyl-3-(trifluoromethyl)-1H-pyrazol-4-yl)-1-oxo-3,4-dihydroisoquinolin-2(1H)-yl)-6-methoxy-2-methylquinoline-8-carboxylate]	< 0.02		23
COc1cc(CN2CCN(C)CC2)c2nccc(N3CCc4c(cc(Cn5ccnc5)cc4-c4cn(C)nc4C(F)(F)F)C3=O)c2c1 [Example 135, 7-((1H-Imidazol-1-yl)methyl)-2-(6-methoxy-8-((4-methylpiperazin-1-yl)methyl)quinolin-4-yl)-5-(1-methyl-3-(trifluoromethyl)-1H-pyrazol-4-yl)-3,4-dihydroisoquinolin-1(2H)-one]	0.04		< 20
